Test results as given in US12042493B2, “Pharmaceutical compounds for use in treating Huntington's disease” (ADEPTIO PHARMACEUTICALS LIMITED, priority 2018, dated 2024).
Entries after “also recorded” stand apart in the source; their conditions may differ.

Legend:
[1] = tested on: R6/2 mouse model of Huntington's disease; test: Survival rates in R6/2 mouse model of Huntington's disease; type: in vivo; conditions: for Number of mice alive at the end of the study / Survival Rate (%): male R6/2 mice
Description: The objective of this study was to investigate the efficacy of (+)-α-dihydrotetrabenazine in the R6/2 mouse model of Huntington's disease. The mice were treated with (+)-α-dihydrotetrabenazine ((+)-α-DHTBZ), tetrabenazine (TBZ) or vehicle starting at 4 weeks of age and continuing until 13 weeks of age.
In total, 38 male R6/2 mice and 9 wild type (WT) littermates were used in the study. Mice were dosed from 4 weeks of age until 13 weeks of age. During the course of the study, the body weight of the animals was measured twice-α-week for the whole study duration. At the end of the study, the mice were sacrificed and only tail samples were collected.
All animal experiments were performed as specified in the license authorized by the national Animal Experiment Board of Finland and according to the National Institutes of Health (Bethesda, MD, USA) guidelines for the care and use of laboratory animals. In total, 38 male R6/2 mice and 9 wild type (WT) littermates were used in the study. Only mice with normal plasma bile acid levels were used for the study.
Animals were grouped as follows: • Group 1: 9 male wild-type (WT) mice treated with vehicle (p.o.) from 4-13 weeks of age • Group 2: 9 male R6/2 mice treated with vehicle (p.o.) from 4-13 weeks of age • Group 3: 10 male R6/2 mice treated with (+)-α-DHTBZ (1.5 mg/kg, p.o.) from 4-13 weeks of age • Group 4: 10 male R6/2 mice treated with (+)-α-DHTBZ (3 mg/kg, p.o.) from 4-13 weeks of age • Group 5: 9 male R6/2 mice treated with tetrabenazine (1.5 mg/kg, p.o.) from 4-13 weeks of age
(+)-α-DHTBZ, TBZ and vehicle were administered each day (10 ml/kg, p.o., QD) at approximately the same time of the day for all the mice, starting at 9 a.m.-11 a.m., when the daily dosing was performed at least 1 hour before the tests.
The mice were monitored until end point or the fulfilment of the euthanasia criteria.
A one-tailed, N-1 Two Proportion Test was used to determine statistically significant differences in the survival rates between the treatment groups.

[2] = tested on: R6/2 mouse model of Huntington's disease; test: Tremor evaluation in the Tremor Monitor chamber, R6/2 mice; type: in vivo; conditions: 3.0 mg/kg p.o., pairwise t-test vs R6/2 Vehicle group, FIG. 3
Description: The objective of this study was to investigate the efficacy of (+)-α-dihydrotetrabenazine in the R6/2 mouse model of Huntington's disease. The mice were treated with (+)-α-dihydrotetrabenazine ((+)-α-DHTBZ), tetrabenazine (TBZ) or vehicle starting at 4 weeks of age and continuing until 13 weeks of age. […] The extent of tremor of the mice was evaluated at 7 and 13 weeks of age. […] The mice were placed inside a Tremor Monitor (San Diego Instruments, SDI) chamber for a 10 minute acclimatisation period, following which the tremor activity of the mice was measured for approximately 8 minutes. The recorded frequencies (1-64 hertz) of activity and the number of tremor events were captured electronically. Data were analysed by the Tremor Monitor software (San Diego Instruments) in a two part process. Using a Fast Fourier Transform (FFT), an output was provided showing the percentage of activity (energy) recorded at each frequency. […]

[3] = 1.5 mg/kg p.o. QD from 4-13 weeks of age
[4] = 3.0 mg/kg p.o. QD from 4-13 weeks of age

COc1cc2c(cc1OC)C1CC(=O)C(CC(C)C)CN1CC2 (racemic) [TBZ, 1,3,4,6,7,11b-hexahydro-9,10-dimethoxy-3-(2-methylpropyl)-2H-benzo(a)quinolizin-2-one, reference compound]
Number of mice alive at the end of the study [1, 3]: 7
Survival Rate (%) [1, 3]: 77.8%

COc1cc2c(cc1OC)[C@H]1C[C@@H](O)[C@H](CC(C)C)CN1CC2 [(+)-α-DHTBZ, (2R, 3R, 11bR)-3-isobutul-9,10-dimethox-1,3,4,6,7,11b-hexahydro-2H-pyrido[2,1,a]isoquinolin-2-ol]
Survival rate / lifespan of R6/2 mice versus vehicle or tetrabenazine (in words) ([1]; R6/2 mice, at both 1.5 mg/kg and 3.0 mg/kg, listed as (+)-α-dihydrotetrabenazine): significantly longer than the survival rates of the R6/2 mice treated with vehicle or tetrabenazine; also recorded: prolonged lifespan compared to untreated control R6/2 mice and R6/2 mice that had been treated with tetrabenazine
Number of mice alive at the end of the study [1, 3]: 10
Survival Rate (%) [1, 3]: 100%
Number of mice alive at the end of the study [1, 4]: 10
Survival Rate (%) [1, 4]: 100%
Tremor Power Spectral Density at 12 Hz [2]: significantly different compared to the R6/2 Vehicle group
